The target in one assay is T1, MycN (Homo sapiens, UniProt P04198).
T1 construct: endogenous in cells; host or cells: SK-N-BE(2)
T1 sequence (P04198 1-464): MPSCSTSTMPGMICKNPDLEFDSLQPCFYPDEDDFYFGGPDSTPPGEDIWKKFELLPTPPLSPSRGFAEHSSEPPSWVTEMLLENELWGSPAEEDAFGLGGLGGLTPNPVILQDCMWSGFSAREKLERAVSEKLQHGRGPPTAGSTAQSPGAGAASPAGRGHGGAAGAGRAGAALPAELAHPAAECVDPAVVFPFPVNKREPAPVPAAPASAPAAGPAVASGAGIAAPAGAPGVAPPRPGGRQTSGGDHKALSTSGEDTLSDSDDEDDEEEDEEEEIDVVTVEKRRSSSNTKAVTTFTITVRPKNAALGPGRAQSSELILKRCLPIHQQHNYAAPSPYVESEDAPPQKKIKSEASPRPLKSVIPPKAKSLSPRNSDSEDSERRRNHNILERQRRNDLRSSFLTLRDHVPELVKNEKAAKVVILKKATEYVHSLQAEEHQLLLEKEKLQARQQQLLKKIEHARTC
The assay can be described thus: Degradation of MycN protein in SK-N-BE(2) cells, JESS/Western blot of lysates. The note with it: SKNBE2 cells, 24 h; for Dmax at 0.5 µM / Dmax at 1 µM / Dmax at 3 µM / Dmax at 6 µM: SKNBE2, 24 h; for Dmax at 0.5 µM: read-out: % Degradation of MycN (SKNBE2) 24 h, 0.5 μM; for Dmax at 1 µM: read-out: % Degradation of MycN (SKNBE2) 24 h, 1 μM; for Dmax at 3 µM: read-out: % Degradation of MycN (SKNBE2) 24 h, 3 μM; for Dmax at 6 µM: read-out: % Degradation of MycN (SKNBE2) 24 h, 6 μM. The format is cell-based. The method, boiled down:
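SK-N-BE(2) adherent cells (5E5 per well of a 6 well dish) were grown 24 hrs, then exposed to compounds diluted 1 in 20 in media, with DMSO controls, for 24 hrs. Cells were scraped, pelleted, PBS washed and lysed in RIPA buffer cocktail; after BCA protein quantitation, n-myc was detected by chemiluminescence on JESS/Western blot with tubulin and GAPDH loading controls read in the near infra red channel.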
In general terms: Immunoblotting shows a protein as a band on a membrane.

A further assay addresses T2, MycC (Homo sapiens, UniProt P01106).
T2 construct: endogenous in cells; host or cells: L363
The assay can be described thus: Degradation of MycC protein in L363 cells, JESS/Western blot of lysates. The note with it: L-363 cells, 24 h; for Dmax at 0.5 µM / Dmax at 1 µM / Dmax at 3 µM / Dmax at 6 µM: L-363, 24 h; for Dmax at 0.5 µM: read-out: % Degradation of MycC (L-363) 24 h, 0.5 μM; for Dmax at 1 µM: read-out: % Degradation of MycC (L-363) 24 h, 1 μM; for Dmax at 3 µM: read-out: % Degradation of MycC (L-363) 24 h, 3 μM; for Dmax at 6 µM: read-out: % Degradation of MycC (L-363) 24 h, 6 μM. The format is cell-based. The method, boiled down: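 L363 suspension cells were seeded at 1E6 cells per well and exposed to compound (stock 10 mM in DMSO) for 24 hrs. Cells were collected, spun down, rinsed with PBS, lysed in RIPA buffer cocktail on ice, clarified and kept at −80 degrees. Lysate protein was quantified by BCA, and c-myc was measured on JESS by chemiluminescence with tubulin and GAPDH loading controls in the NIR channel.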

SMILES strings stand for the structures.

T2 sequence (P01106 whole entry): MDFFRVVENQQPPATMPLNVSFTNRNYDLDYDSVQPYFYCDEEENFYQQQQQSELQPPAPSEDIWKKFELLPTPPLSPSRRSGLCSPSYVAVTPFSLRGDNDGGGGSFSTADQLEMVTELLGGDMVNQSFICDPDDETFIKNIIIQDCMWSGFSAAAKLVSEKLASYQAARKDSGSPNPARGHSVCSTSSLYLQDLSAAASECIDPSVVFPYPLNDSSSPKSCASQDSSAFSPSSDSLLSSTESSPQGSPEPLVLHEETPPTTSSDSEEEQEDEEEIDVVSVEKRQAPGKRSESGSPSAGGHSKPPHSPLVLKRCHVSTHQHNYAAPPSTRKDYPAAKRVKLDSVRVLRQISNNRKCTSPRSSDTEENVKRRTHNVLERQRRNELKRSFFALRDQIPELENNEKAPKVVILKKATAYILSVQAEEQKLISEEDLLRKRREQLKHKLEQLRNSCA

As for `CNCC12CCC(C1)N(c1nccc(Nc3cc(C4CC4)[nH]n3)n1)C2` (centres unmarked) [Compound 45, N-(5-Cyclopropyl-1H-pyrazol-3-yl)-2-[4-(methylaminomethyl)-2-azabicyclo[2.2.1]heptan-2-yl]pyrimidin-4-amine], the Dmax at 0.5 µM on MycN and at MycC (0.5 μM) was 80 to 100% throughout. Further, the Dmax at 1 µM at MycN and at MycC was 80 to 100% in each case. Also, the Dmax at 3 µM on MycN and at MycC was 80 to 100% throughout. For the same molecule, the Dmax at 6 µM at MycN (6 μM) and at MycC (6 μM) was 80 to 100% each time.
`CN(C)CC12CC(C1)N(c1nccc(Nc3cc(C4CC4)[nH]n3)n1)C2` [Compound 22, N-(5-Cyclopropyl-1H-pyrazol-3-yl)-2-[4-[(dimethylamino)methyl]-2-azabicyclo[2.1.1]hexan-2-yl]pyrimidin-4-amine]: at MycN, the Dmax at 0.5 µM was under 20%, the Dmax at 1 µM was under 20% and the Dmax at 3 µM fell in the range of 20 to 49%. Also, the Dmax at 6 µM at MycN (6 μM) lay within 50 to 79%. Also, the Dmax at 3 µM at MycC is under 20%. In addition, the Dmax at 6 µM on MycC (6 μM) is 80 to 100%.
`NCC1CN(c2nccc(Nc3cc(C4CCCC4)[nH]n3)n2)CC1(F)F` (centres unmarked) [Compound 125, 2-[4-(Aminomethyl)-3,3-difluoro-pyrrolidin-1-yl]-N-(5-cyclopentyl-1H-pyrazol-3-yl)pyrimidin-4-amine]: the Dmax at 0.5 µM on MycN and at MycC (0.5 μM) was 20 to 49% throughout. The Dmax at 1 µM on MycN and at MycC was 20 to 49% in each case. Further, at MycN, the Dmax at 3 µM was 50 to 79%. Also, the Dmax at 6 µM on MycN (6 μM) and at MycC (6 μM) was 80 to 100% in each case.
Regarding `NCC1CN(c2nccc(Nc3cc(C4CCCC4)[nH]n3)n2)CC(F)(F)C1` (centres unmarked) [Compound 115, 2-[5-(Aminomethyl)-3,3-difluoro-1-piperidyl]-N-(5-cyclopentyl-1H-pyrazol-3-yl)pyrimidin-4-amine], at MycN, the Dmax at 0.5 µM lay within 20 to 49%, the Dmax at 1 µM is 50 to 79% and the Dmax at 3 µM was 80 to 100%. For the same molecule, at MycN (6 μM), the Dmax at 6 µM lay in the range of 80 to 100%. Further, the Dmax at 3 µM at MycC lay in the range of 80 to 100%. In addition, the Dmax at 6 µM at MycC (6 μM) lay within 80 to 100%.
`CN1CC(C2CCN(c3nccc(Nc4cc(C5CCCC5)[nH]n4)n3)C2)C1` (centres unmarked) [Compound 27, N-(5-cyclopentyl-1H-pyrazol-3-yl)-2-[3-(1-methylazetidin-3-yl)pyrrolidin-1-yl]pyrimidin-4-amine]: the values for the Dmax at 0.5 µM on MycN and on MycC (0.5 μM) were 20 to 49% and under 20%, respectively. Further, the Dmax at 1 µM on MycN and at MycC was 20 to 49% each time. The Dmax at 3 µM at MycN was 50 to 79%; at MycC, under 20%. Further, the Dmax at 6 µM was in the range of 80 to 100% at MycN (6 μM) and 20 to 49% at MycC (6 μM).
`CNCC12CC(C1)N(c1nccc(Nc3cc(C4CCC4)[nH]n3)n1)C2` [Compound 81, N-(5-Cyclobutyl-1H-pyrazol-3-yl)-2-[4-(methylaminomethyl)-2-azabicyclo[2.1.1]hexan-2-yl]pyrimidin-4-amine]: the Dmax at 0.5 µM at MycN and on MycC (0.5 μM) was 20 to 49% in each case. Besides, the Dmax at 1 µM at MycN was in the range of 50 to 79%; on MycC, 20 to 49%. The Dmax at 3 µM on MycN and at MycC was 80 to 100% each time. For the same molecule, the Dmax at 6 µM on MycN (6 μM) and at MycC (6 μM) was 80 to 100% throughout.
With `CN(C)[C@H]1CCN(c2nccc(Nc3cc(C4CC4)[nH]n3)n2)C1` [Compound 9, (S)—N-(5-Cyclopropyl-1H-pyrazol-3-yl)-2-(3-(dimethylamino)pyrrolidin-1-yl)pyrimidin-4-amine], the Dmax at 0.5 µM at MycN and on MycC (0.5 μM) was 20 to 49% in each case. The Dmax at 1 µM on MycN and on MycC was 20 to 49% throughout. The Dmax at 3 µM at MycN was under 20%; on MycC, 20 to 49%. The Dmax at 6 µM on MycN (6 μM) was under 20%; at MycC (6 μM), 80 to 100%.
`NC[C@H]1CN(c2nccc(Nc3cc(C4CC4)[nH]n3)n2)C[C@H]1F` [Compound 122-2, 2-[(3S,4S)-3-(Aminomethyl)-4-fluoro-pyrrolidin-1-yl]-N-(5-cyclopropyl-1H-pyrazol-3-yl)pyrimidin-4-amine]: the figures for the Dmax at 1 µM at MycN and at MycC were under 20% and 50 to 79%, respectively. In addition, the results for the Dmax at 3 µM on MycN and on MycC were 50 to 79% and 80 to 100%, respectively. Moreover, the Dmax at 6 µM on MycN (6 μM) and on MycC (6 μM) was 80 to 100% in each case. The Dmax at 0.5 µM at MycC (0.5 μM) was 20 to 49%.
As for `c1cc(Nc2cc(C3CC3)[nH]n2)nc(N2CCC3(CNC3)C2)n1` [Compound 2, N-(5-cyclopropyl-1H-pyrazol-3-yl)-2-(2,6-diazaspiro[3.4]octan-6-yl)pyrimidin-4-amine], the Dmax at 0.5 µM on MycN was under 20%; on MycC (0.5 μM), 20 to 49%. Also, the Dmax at 1 µM is under 20% at MycN and 20 to 49% on MycC. In addition, the Dmax at 3 µM at MycN was under 20%; at MycC, 20 to 49%. Moreover, the Dmax at 6 µM lay in the range of 50 to 79% on MycN (6 μM) and 20 to 49% on MycC (6 μM).
Turning to `CN1CC2(CCCN(c3nccc(Nc4cc(C5CC5)[nH]n4)n3)C2)C1` [Compound 43], the Dmax at 0.5 µM at MycN and at MycC (0.5 μM) was 20 to 49% throughout. The results for the Dmax at 1 µM at MycN and on MycC were 20 to 49% and under 20%, respectively. Further, the Dmax at 3 µM on MycN and at MycC was 20 to 49% each time. Moreover, the Dmax at 6 µM at MycN (6 μM) was 50 to 79%; on MycC (6 μM), under 20%.
As for `CC(N)C1CCCN(c2nccc(Nc3cc(C4CC4)[nH]n3)n2)C1` (single isomer, unassigned) [Compound 159, 2-[3-(1-Aminoethyl)-1-piperidyl]-N-(5-cyclopropyl-1H-pyrazol-3-yl)pyrimidin-4-amine], on MycN (6 μM), the Dmax at 6 µM was 80 to 100% and the “% Degradation of MycN (SKNBE2) 24 h, 6 μM” value is “**** (degradation 80-100%)”. In addition, on MycC (0.5 μM), the Dmax at 0.5 µM was in the range of 20 to 49% and the “% Degradation of MycC (L-363) 24 h, 0.5 μM” value is listed as “** (degradation 20-49%)”. Moreover, at MycC (6 μM), the Dmax at 6 µM lay within 80 to 100% and the “% Degradation of MycC (L-363) 24 h, 6 μM” value is “**** (degradation 80-100%)”.
With `CN1CC2(C1)CN(c1nccc(Nc3cc(C4CC4)[nH]n3)n1)C2` [Compound 4, N-(5-Cyclopropyl-1H-pyrazol-3-yl)-2-(6-methyl-2,6-diazaspiro[3.3]heptan-2-yl)pyrimidin-4-amine], the Dmax at 0.5 µM on MycN and at MycC (0.5 μM) was under 20% each time. The Dmax at 1 µM on MycN and at MycC was 20 to 49% each time. Further, the Dmax at 3 µM on MycN was 20 to 49%; at MycC, 80 to 100%. For the same molecule, the Dmax at 6 µM on MycN (6 μM) was 20 to 49%; at MycC (6 μM), 80 to 100%.
`CN1CC(C2CN(c3nccc(Nc4cc(C5CCCC5)[nH]n4)n3)C2)C1` [Compound 65, N-(5-Cyclopentyl-1H-pyrazol-3-yl)-2-[3-(1-methylazetidin-3-yl)azetidin-1-yl]pyrimidin-4-amine]: the Dmax at 0.5 µM at MycN and on MycC (0.5 μM) was under 20% in each case. In addition, the Dmax at 1 µM at MycN and at MycC was under 20% each time. The Dmax at 3 µM is 20 to 49% at MycN and under 20% on MycC. Also, the Dmax at 6 µM at MycN (6 μM) and at MycC (6 μM) was 50 to 79% throughout.
As to `CNCC12CC(C1)N(c1ncc(C)c(Nc3cc(C4CCCC4)[nH]n3)n1)C2` [Compound 182, N-(5-Cyclopentyl-1H-pyrazol-3-yl)-5-methyl-2-[4-(methylaminomethyl)-2-azabicyclo[2.1.1]hexan-2-yl]pyrimidin-4-amine], on MycN, the Dmax at 0.5 µM was 20 to 49%, the Dmax at 1 µM was 20 to 49% and the Dmax at 3 µM was in the range of 80 to 100%. The Dmax at 6 µM at MycN (6 μM) is 80 to 100%. For the same molecule, the Dmax at 6 µM on MycC (6 μM) lay within 80 to 100%.

These data come from patent publication US20250170130A1, “MODULATORS OF MYC FAMILY PROTO-ONCOGENE PROTEIN” (Nalo Therapeutics, priority 2022, published 2025).
